The text below walks through data of patent publication US12427146B2, “C-terminal SRC kinase inhibitors” (INVENTISBIO CO., LTD., priority 2018, dated 2025).

One test concerns the target CSK protein (Homo sapiens (Human), UniProt P41240). The test can be described thus: CSK Inhibition Assay. It is filed as biochemical. In outline:
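Compounds, 11-point 1:3 dilutions in DMSO, were preincubated 30 min at RT with CSK and fluorescent peptide substrate, then the reaction was started with ATP (4 μM solution) and run 90 min at 25 °C before EDTA stop. Phospho-peptide conversion was read by mobility-shift separation (Caliper EZ Reader II) and converted to % inhibition for IC50.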

A further test addresses LCK protein (Homo sapiens (Human), UniProt P06239). Put plainly: LCK Inhibition Assay. The test is classed as biochemical. In outline:
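Recombinant LCK (0.50 nM) preincubated 30 min at RT with compound and FLPeptide4 (2 μM) in 50 mM HEPES pH 7.5, 10 mM MgCl2, Brij-35, DTT, BSA; reaction started with ATP (400 μM solution added), run 90 min at 25 °C, EDTA-stopped. Phospho/non-phospho peptide separated by mobility shift; IC50 from % inhibition of conversion, 11-point 1:3 series.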

Molecules are shown by their SMILES.

LCK protein, sequence (P06239 whole entry): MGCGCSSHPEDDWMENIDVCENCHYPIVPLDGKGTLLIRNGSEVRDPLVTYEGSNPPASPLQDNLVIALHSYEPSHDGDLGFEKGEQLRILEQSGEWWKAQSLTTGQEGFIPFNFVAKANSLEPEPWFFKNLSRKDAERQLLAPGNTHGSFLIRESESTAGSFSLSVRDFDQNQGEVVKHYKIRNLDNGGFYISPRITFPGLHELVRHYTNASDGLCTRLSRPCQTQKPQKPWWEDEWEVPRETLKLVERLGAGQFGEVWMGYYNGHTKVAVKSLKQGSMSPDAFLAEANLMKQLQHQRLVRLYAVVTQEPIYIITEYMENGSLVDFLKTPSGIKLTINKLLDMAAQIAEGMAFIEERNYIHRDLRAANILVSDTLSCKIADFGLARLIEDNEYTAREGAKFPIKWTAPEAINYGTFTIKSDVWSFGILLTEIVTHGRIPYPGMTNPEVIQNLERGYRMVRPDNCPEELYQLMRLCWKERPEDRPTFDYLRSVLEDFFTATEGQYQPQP
CSK protein, sequence (P41240 whole entry): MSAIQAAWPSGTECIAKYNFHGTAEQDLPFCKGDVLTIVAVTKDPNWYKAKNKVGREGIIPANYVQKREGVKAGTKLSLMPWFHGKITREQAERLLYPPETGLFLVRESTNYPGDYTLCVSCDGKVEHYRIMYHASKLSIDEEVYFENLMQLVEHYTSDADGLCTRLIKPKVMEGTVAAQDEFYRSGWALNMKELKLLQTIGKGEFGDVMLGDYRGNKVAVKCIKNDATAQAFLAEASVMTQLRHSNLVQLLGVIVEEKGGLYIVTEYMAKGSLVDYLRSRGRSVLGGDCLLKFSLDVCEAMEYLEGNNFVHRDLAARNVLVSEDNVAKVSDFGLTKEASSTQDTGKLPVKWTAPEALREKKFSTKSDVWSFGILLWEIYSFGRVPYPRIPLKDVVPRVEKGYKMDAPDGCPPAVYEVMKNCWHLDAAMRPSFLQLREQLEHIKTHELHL

For `Cc1ncc(-c2nc(-c3cccc(NS(=O)(=O)c4c(Cl)ccc(C)c4Cl)c3F)c(-c3ccnc(N)n3)s2)cn1` [Compound 142], the half-inhibitory concentration (IC50) on CSK protein was 0.0105 µM; against LCK protein, over 1 µM.
As for `CNc1nccc(-c2sc(-c3cnc(C)nc3)nc2-c2cccc(NS(=O)(=O)c3c(Cl)ccc(C)c3Cl)c2F)n1` [Compound 143], the IC50 against CSK protein was 0.0036 µM; on LCK protein, over 1 µM.
On the same counts, the results for `CNc1nccc(-c2sc(-c3cnc(C)cn3)nc2-c2cccc(NS(=O)(=O)c3c(F)ccc(C)c3F)c2F)n1` [Compound 144] are 0.0239 µM and over 1 µM.
On the same counts, the results for `CNc1nccc(-c2c(-c3cccc(NS(=O)(=O)c4c(Cl)cccc4Cl)c3F)nc3cc(OC)ccn23)n1` [Compound 145] are 0.113 µM and over 1 µM.
The corresponding values for `CNc1nccc(-c2c(-c3cccc(NS(=O)(=O)c4c(Cl)ccc(C)c4Cl)c3F)nc3cc(OC)ccn23)n1` [Compound 146] are 0.0413 µM and over 1 µM.
For `COc1ccn2c(-c3ccnc(NCCO)n3)c(-c3cccc(NS(=O)(=O)c4c(Cl)ccc(C)c4Cl)c3F)nc2c1` [Compound 147], the IC50 is 0.0303 µM against CSK protein and over 1 µM on LCK protein.
The corresponding values for `CNc1nccc(-c2sc(-c3cnc(C)nc3)nc2-c2cccc(NS(=O)(=O)c3c(Cl)cccc3Cl)c2F)n1` [Compound 148] are 0.0069 µM and 0.1 to 1 µM.
As for `Cc1ncc(-c2nc(-c3cccc(NS(=O)(=O)c4c(Cl)cccc4Cl)c3F)c(-c3ccnc(NC4CC4)n3)s2)cn1` [Compound 149], the IC50 against CSK protein is 0.0045 µM; at LCK protein it was over 1 µM.
In the case of `Cc1ncc(-c2nc(-c3cccc(NS(=O)(=O)c4c(Cl)cccc4Cl)c3F)c(-c3ccnc(NCCO)n3)s2)cn1` [Compound 150], the IC50 on CSK protein was 0.0081 µM; against LCK protein, over 1 µM.
The corresponding values for `Cc1ncc(-c2nc(-c3cccc(NS(=O)(=O)c4c(Cl)ccc(C)c4Cl)c3F)c(-c3ccnc(NC4CC4)n3)s2)cn1` [Compound 151] are 0.0048 µM and over 1 µM.
The corresponding values for `Cc1ncc(-c2nc(-c3cccc(NS(=O)(=O)c4c(Cl)ccc(C)c4Cl)c3F)c(-c3ccnc(NCCO)n3)s2)cn1` [Compound 152] are 0.006 µM and over 1 µM.
The corresponding values for `Cc1ncc(-c2nc(-c3cccc(NS(=O)(=O)c4c(F)ccc(C)c4F)c3F)c(-c3ccnc(NCCO)n3)s2)cn1` [Compound 155] are 0.0166 µM and over 1 µM.
Consider `Cc1ncc(-c2nc(-c3cccc(NS(=O)(=O)c4c(F)ccc(C)c4F)c3F)c(-c3ccnc(NC4CC4)n3)s2)cn1` [Compound 156], for which the concentration for half-maximal inhibition (IC50) was 0.0093 µM against CSK protein and over 1 µM at LCK protein.
As for `CNc1nccc(-c2sc(N(C)C)nc2-c2cccc(NS(=O)(=O)c3c(F)cccc3F)c2F)n1` [Compound 157], the IC50 against CSK protein was 0.0258 µM; at LCK protein it was over 1 µM.
The corresponding values for `COc1ccn2c(-c3ccnc(NC4CC4)n3)c(-c3cccc(NS(=O)(=O)c4c(Cl)cccc4Cl)c3F)nc2c1` [Compound 158] are 0.171 µM and over 1 µM.
On the same counts, the results for `COc1ccn2c(-c3ccnc(NCCO)n3)c(-c3cccc(NS(=O)(=O)c4c(Cl)cccc4Cl)c3F)nc2c1` [Compound 159] are 0.0284 µM and over 1 µM.
Regarding `COc1ccn2c(-c3ccnc(NC4CC4)n3)c(-c3cccc(NS(=O)(=O)c4c(Cl)ccc(C)c4Cl)c3F)nc2c1` [Compound 160], the IC50 against CSK protein was 0.112 µM; at LCK protein it was over 1 µM.
The corresponding values for `CNc1nccc(-c2sc(N3CCCCC3)nc2-c2cccc(NS(=O)(=O)c3c(F)ccc(C)c3F)c2F)n1` [Compound 161] are 0.0101 µM and over 1 µM.
With `CNc1nccc(-c2sc(N3CCC(F)(F)C3)nc2-c2cccc(NS(=O)(=O)c3c(F)cccc3F)c2F)n1` [Compound 162], the IC50 against CSK protein is 0.0064 µM; against LCK protein it was 0.1 to 1 µM.
The corresponding values for `O=S(=O)(Nc1cccc(-c2nc(N3CCCCC3)sc2-c2ccnc(NC3CC3)n2)c1F)c1c(F)cccc1F` [Compound 163] are 0.0074 µM and 0.1 to 1 µM.
The corresponding values for `CNc1nccc(-c2sc(N3CCC(F)(F)CC3)nc2-c2cccc(NS(=O)(=O)c3c(F)cccc3F)c2F)n1` [Compound 164] are 0.0254 µM and 0.1 to 1 µM.
In the case of `CNc1nccc(-c2sc(NCC(F)(F)F)nc2-c2cccc(NS(=O)(=O)c3c(F)cccc3F)c2F)n1` [Compound 165], the half-inhibitory concentration (IC50) at CSK protein was 0.0099 µM; against LCK protein it was 0.1 to 1 µM.
The corresponding values for `CNc1nccc(-c2sc(N3CCCCC3)nc2-c2cccc(NS(=O)(=O)c3c(Cl)cccc3Cl)c2F)n1` [Compound 166] are 0.0135 µM and 0.1 to 1 µM.
The corresponding values for `Cc1ccc(F)c(S(=O)(=O)Nc2cccc(-c3nc(-c4cncc(F)c4)sc3-c3ccnc(NCCO)n3)c2F)c1F` [Compound 167] are 0.0159 µM and over 1 µM.
The corresponding values for `CNc1nccc(-c2sc(N3CC(F)(F)C3)nc2-c2cccc(NS(=O)(=O)c3c(F)cccc3F)c2F)n1` [Compound 168] are 0.0127 µM and 0.1 to 1 µM.
As to `Cc1ccc(F)c(S(=O)(=O)Nc2cccc(-c3nc(-c4cncc(F)c4)sc3-c3ccnc(NC4CC4)n3)c2F)c1F` [Compound 169], the results for the IC50 at CSK protein and against LCK protein were 0.0091 µM and over 1 µM, respectively.
The corresponding values for `O=S(=O)(Nc1cccc(-c2nc(-c3cncc(F)c3)sc2-c2ccnc(NC3CC3)n2)c1F)c1c(F)ccc(Cl)c1F` [Compound 171] are 0.0056 µM and over 1 µM.
The corresponding values for `O=S(=O)(Nc1cccc(-c2nc(-c3cncc(F)c3)sc2-c2ccnc(NCCO)n2)c1F)c1c(F)ccc(Cl)c1F` [Compound 172] are 0.0054 µM and over 1 µM.
On the same counts, the results for `Cc1ccc(-c2nc(-c3cccc(NS(=O)(=O)c4c(F)ccc(C)c4F)c3F)c(-c3ccnc(NC4CC4)n3)s2)nn1` [Compound 173] are 0.0103 µM and over 1 µM.
For `Cc1ccc(-c2nc(-c3cccc(NS(=O)(=O)c4c(F)ccc(C)c4F)c3F)c(-c3ccnc(NCCO)n3)s2)nn1` [Compound 174], the IC50 was 0.0175 µM at CSK protein and over 1 µM at LCK protein.
On the same counts, the results for `Cc1ccc(-c2nc(-c3cccc(NS(=O)(=O)c4c(Cl)ccc(C)c4Cl)c3F)c(-c3ccnc(NC4CC4)n3)s2)nn1` [Compound 175] are 0.0065 µM and over 1 µM.
`Cc1ccc(F)c(S(=O)(=O)Nc2cccc(-c3nc(N4CCCCC4)sc3-c3ccnc(NC4CC4)n3)c2F)c1F` [Compound 176]: the IC50 against CSK protein was 0.0102 µM; against LCK protein it was over 1 µM.
The corresponding values for `CNc1nccc(-c2sc(N3CCCCC3)nc2-c2cccc(NS(=O)(=O)c3c(Cl)ccc(C)c3Cl)c2F)n1` [Compound 177] are 0.0141 µM and over 1 µM.
The corresponding values for `Cc1ccc(Cl)c(S(=O)(=O)Nc2cccc(-c3nc(N4CCCCC4)sc3-c3ccnc(NCCO)n3)c2F)c1Cl` [Compound 178] are 0.0075 µM and over 1 µM.
On to `Cc1ccc(Cl)c(S(=O)(=O)Nc2cccc(-c3nc(N4CCCCC4)sc3-c3ccnc(NC4CC4)n3)c2F)c1Cl` [Compound 179], for which the results for the IC50 at CSK protein and on LCK protein were 0.0062 µM and over 1 µM, respectively.
On the same counts, the results for `CNc1nccc(-c2sc(N(C)C)nc2-c2cccc(NS(=O)(=O)c3c(F)ccc(C)c3F)c2F)n1` [Compound 180] are 0.013 µM and over 1 µM.
On the same counts, the results for `CNc1nccc(-c2sc(N(C)CC(F)(F)F)nc2-c2cccc(NS(=O)(=O)c3c(F)cccc3F)c2F)n1` [Compound 181] are 0.0078 µM and 0.1 to 1 µM.
The corresponding values for `CNc1nccc(-c2sc(N(C)C)nc2-c2cccc(NS(=O)(=O)c3c(Cl)ccc(C)c3Cl)c2F)n1` [Compound 182] are 0.0083 µM and over 1 µM.
Take `Cc1ccc(F)c(S(=O)(=O)Nc2cccc(-c3nc(N(C)C)sc3-c3ccnc(NC4CC4)n3)c2F)c1F` [Compound 183]: the half-inhibitory concentration (IC50) was 0.0112 µM against CSK protein and over 1 µM at LCK protein.
The corresponding values for `O=S(=O)(Nc1cccc(-c2nc(N3CCCC3)sc2-c2ccnc(NC3CC3)n2)c1F)c1c(F)ccc(Cl)c1F` [Compound 184] are 0.0052 µM and over 1 µM.
On the same counts, the results for `O=S(=O)(Nc1cccc(-c2nc(N3CCCCC3)sc2-c2ccnc(NC3CC3)n2)c1F)c1c(F)ccc(Cl)c1F` [Compound 185] are 0.0049 µM and over 1 µM.
On to `O=S(=O)(Nc1cccc(-c2nc(N3CCC3)sc2-c2ccnc(NC3CC3)n2)c1F)c1c(F)ccc(Cl)c1F` [Compound 186], for which the IC50 on CSK protein is 0.0041 µM; against LCK protein, over 1 µM.
Consider `CN(C)c1nc(-c2cccc(NS(=O)(=O)c3c(F)ccc(Cl)c3F)c2F)c(-c2ccnc(NC3CC3)n2)s1` [Compound 187], for which the figures for the IC50 against CSK protein and on LCK protein were 0.0073 µM and over 1 µM, respectively.
On the same counts, the results for `CC(C)(C)c1nc(-c2cccc(NS(=O)(=O)c3c(F)ccc(Cl)c3F)c2F)c(-c2ccnc(NC3CC3)n2)s1` [Compound 188] are 0.0114 µM and over 1 µM.
On to `CNc1nccc(-c2sc(N3CCC(F)(F)CC3)nc2-c2cccc(NS(=O)(=O)c3c(F)ccc(C)c3F)c2F)n1` [Compound 189], for which the IC50 against CSK protein was 0.0185 µM; on LCK protein, over 1 µM.
The corresponding values for `Nc1nccc(-c2sc(-c3ccccc3)nc2-c2cccc(NS(=O)(=O)c3c(F)cccc3F)c2F)n1` [compound 2] are 0.0433 µM and over 1 µM.
The corresponding values for `O=S(=O)(Nc1cccc(-c2nc(-c3ccccc3)sc2-c2ccnc(Nc3ccc(N4CCOCC4)nc3)n2)c1F)c1c(F)cccc1F` [compound 3] are 0.0134 µM and under 0.1 µM.

The IC50 is the concentration at which inhibition is half-maximal. Read a low IC50 as greater potency in that assay.
